# Experimental data reported in patent US20220332799A1, “HERV INHIBITORS FOR USE IN TREATING TAUOPATHIES” (Deutsches Zentrum Für Neurodegenerative Erkrankungen E.V. …, priority 2019, published 2022).
# “Also recorded” adds a separate entry of the source.
# How the values were obtained:
# MuERV env and gag mRNA = experiment: qRT-PCR of MuERV env and gag transcripts in donor clone s2E; type: cell-based, mouse; details: s2E P1 donors, Aza 200 nM or Dec 100 nM, then 5 days without drug, vs DMSO
# Description: To inhibit methyltransferases, s2E P1 donor cells were treated for three days with methyltransferase inhibitors 5-Azacytidine (Aza) 200 nM, Decitabine (Dec) 100 nM or DMSO as solvent control. Subsequently, the cells were cultured in the absence of the drugs for 5 days. Pre-treated donor cells were subsequently cocultured with recipient cells as described above to monitor aggregate induction efficiency in recipient N2a NM-GFP^sol cells. Cell lysates of donor cells were also analyzed for MuERV Env and Gag expression levels by western blot. To increase DNA methylation, the s2E donor clone (P21) was treated with methyl group donors L-methionine (L-M) 80 mM, Betaine (B) 80 mM, Choline chloride (CC) 20 mM or medium control for 6 days. MuERV Env and Gag protein levels were analyzed by western blot. Subsequently, cells were cocultured with recipient cells for 16 h. The percentage of aggregate containing recipient cells was compared to the percentage of aggregate bearing recipients cocultured with solvent-treated donors. […]
# Total RNA from cell pellets or brain samples was isolated using the RNeasy Mini Kit or RNeasy Lipid Tissue Mini Kit (Qiagen). RNA concentration and quality were determined using the Agilent 2100 Bioanalyzer System. For a 20 μl reaction, 1 μg RNAs were reversely transcribed to cDNA using the iScript™ cDNA Synthesis Kit (Bio-Rad). For a 20 μl qRT-PCR reaction, 2 μl of synthesized cDNA was used as template. For qRT-PCR of murine env AA037244.2 and gag AID54952, custom designed TaqMan probes were used (Thermo Fisher Scientific). Pre-designed TaqMan probes by the company for murine pan-env, xpr1, mcat-1 and gapdh as housekeeping control and TaqMan™ Gene Expression Master Mix (Thermo Fisher Scientific) were used. qRT-PCR using TaqMan probes was performed as described in the manufacturer's instruction. For qRT-PCR analyses of HERV family members, primers were designed using the corresponding cDNA sequences (cf. SEQ ID NOs. 73-92). PowerUP SYBR™ Green Master Mix (Thermo Fisher Scientific) was mixed with different cDNAs and corresponding primers as indicated in the instruction. The fast cycling mode was used for all primers.
# [1] = test system: HEK Tau-FusionRed^sol cells expressing murine XPR1-HA; experiment: Tau aggregate induction in recipient cells by coculture with N2a s2E Tau-GFP^CBD donor cells; type: cell-based, human; details: donors pretreated with 10 μM; coculture 3 d in the presence of 10 μM; vs DMSO
# Description: To examine this effect on Tau aggregate spreading, an N2a s2E cell clone stably propagating aggregated Tau-GFP^CBD was produced (FIG. 11a). […]. Cells and EVs were analyzed for the presence of aggregated Tau-GFP. Pronase-resistant Tau-GFP was found in both cell lysate and EVs (FIG. 2q). To inhibit MuERV gene product maturation, donor cells were treated with Amprenavir for three days. Donor cells and donor cell-derived EVs were subsequently exposed for three days to recipient HEK cells expressing soluble Tau-FusionRed and the murine XPR1 receptor variant required for MuERV Env interaction. Due to this long incubation time, the coculture and EV induction assays were performed in the presence of Amprenavir (FIG. 11b). […]
# Recipient cells were cultured on CellCarrier-96 plates or 384 black microplates (PerkinElmer) at appropriate cell numbers for 1 h, and then treated with 5-10 μl of prepared samples (isolated EVs or recombinant NM fibrils). […] On average, a total of 3-4×10^4 cells per well and at least 3 wells per treatment were analyzed.
# The treatment of cells with Amprenavir (10 μM; Santa Cruz) and DMSO was performed for 72 h in EV-depleted medium in T175 flasks. Afterwards, the total numbers of viable cells and the viability upon drug treatment were determined using the Vi-VELL™ XR Cell Viability Analyzer (Beckman Coulter). […]
SMILES,expression of total env and gag mRNA (MuERV env and gag mRNA),expression of total env and gag mRNA (MuERV env and gag mRNA; listed as 5-aza-2′-deoxycytidine),Tau-FusionRed aggregate induction in cocultures [1]
"Nc1ncn([C@H]2C[C@H](O)[C@@H](CO)O2)c(=O)n1 [Decitabine, 5-aza-2′-deoxycytidine]",increased expression of total env and gag mRNA,"Increased expression of MuERV env (f), gag (h) and pan-env (g) transcripts",
CC(C)CN(C[C@@H](O)[C@H](Cc1ccccc1)NC(=O)O[C@H]1CCOC1)S(=O)(=O)c1ccc(N)cc1 [Amprenavir],,,decreased Tau-FusionRed aggregate induction in Amprenavir-treated cocultures; also recorded: significantly decreased Tau-FusionRed aggregate induction in recipients
